Results: patent US7166607B2, “Substituted indoles” (AstraZeneca AB, priority 2002, dated 2007)

What was measured:
rhCRTh2 = biological target: T1, rhCRTh2 (Homo sapiens, UniProt Q9Y5Y4); test: Ligand Binding Assay ([3H]PGD2 SPA, HEK cell membranes); settings: [3H]PGD2 displacement, membranes of HEK cells expressing rhCRTh2/Gα16, SPA beads, 2 hours room temperature
T1 construct: expressed in transfected cells; host or cells: HEK cells (stably transfected, geneticin selection; expression induced with sodium butyrate); membrane preparation
T1 sequence (Q9Y5Y4 1-395): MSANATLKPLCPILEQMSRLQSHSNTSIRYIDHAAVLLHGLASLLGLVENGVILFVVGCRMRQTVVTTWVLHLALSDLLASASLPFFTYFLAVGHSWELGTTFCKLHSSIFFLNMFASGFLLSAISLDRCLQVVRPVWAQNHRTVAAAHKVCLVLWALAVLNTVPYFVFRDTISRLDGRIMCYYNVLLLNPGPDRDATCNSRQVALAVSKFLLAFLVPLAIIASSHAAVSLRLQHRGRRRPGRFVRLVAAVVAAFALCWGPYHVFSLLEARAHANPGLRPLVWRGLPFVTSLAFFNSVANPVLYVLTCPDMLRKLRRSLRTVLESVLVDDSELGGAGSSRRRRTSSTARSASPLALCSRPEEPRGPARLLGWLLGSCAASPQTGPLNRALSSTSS
Method: [^3H]PGD2 was purchased from Perkin Elmer Life Sciences with a specific activity of 100–210 Ci/mmol. All other chemicals were of analytical grade.
HEK cells expressing rhCRTh2/Gα16 were routinely maintained in DMEM containing 10% Foetal Bovine Serum (HyClone), 1 mg/ml geneticin, 2 mM L-glutamine and 1% non-essential amino acids. For the preparation of membranes, the adherent transfected HEK cells were grown to confluence in two layer tissue culture factories (Fisher, catalogue number TKT-170-070E). Maximal levels of receptor expression were induced by addition of […] sodium butyrate for the last 18 hours of culture. The adherent cells were washed once with phosphate buffered saline (PBS, 50 ml per cell factory) and detached by the addition of 50 ml per cell factory of ice-cold membrane homogenisation buffer [20 mM HEPES (pH 7.4), 0.1 mM dithiothreitol, 1 mM EDTA, 0.1 mM phenyl methyl sulphonyl fluoride and 100 μg/ml bacitracin]. […] The final pellet was re-suspended in 4 ml of membrane homogenisation buffer per cell factory used and the protein content determined. […]
All assays were performed in Corning clear bottomed, white 96-well NBS plates (Fisher). […] (The optimum coating concentrations were determined for each batch of membranes) The beads were pelleted by centrifugation (800×g for 7 minutes at 4° C.), washed once with assay buffer (50 mM HEPES pH 7.4 containing 5 mM magnesium chloride) and finally re-suspended in assay buffer at a bead concentration of 10 mg/ml.
Each assay contained 20 μl of 6.25 nM [^3H]PGD2, 20 μl membrane saturated SPA beads both in assay buffer and 10 μl of compound solution or 13,14-dihydro-15-keto prostaglandin D2 (DK-PGD2, for determination of non-specific binding, Cayman chemical company). […] The assay plate was incubated at room temperature for 2 hours and counted on a Wallac Microbeta liquid scintillation counter (1 minute per well).

melting point	IC50 (rhCRTh2)	SMILES
173 °C	891 nM	Cc1c(Sc2ccc(Cl)cc2)c2c(N3CCN(C(=O)OC(C)(C)C)CC3)cccc2n1CC(=O)O [Example 23, 3-[(4-chlorophenyl)thio]-4-[4-[(1,1-dimethylethoxy)carbonyl]-1-piperazinyl]-2-methyl-1H-indole-1-acetic acid]
–	4.47 nM	COc1cccc(Sc2c(C)n(CC(=O)O)c3ccc(C)cc23)c1 [Example 29, 3-[(3-methoxyphenyl)thio]-2,5-dimethyl-1H-indole-1-acetic acid]
221 to 223 °C	–	COC(=O)c1ccc2c(c1)c(Sc1ccc(Cl)cc1)c(C)n2CC(=O)O [Example 53, 3-[(4-chlorophenyl)thio]-5-(methoxycarbonyl)-2-methyl-1H-indole-1-acetic acid]
–	63.1 nM	Cc1ccc2c(c(Sc3nc(-c4ccccc4)cs3)c(C)n2CC(=O)O)c1S(C)(=O)=O [Example 50, 2,5-dimethyl-4-(methylsulfonyl)-3-[(4-phenyl-2-thiazolyl)thio]-1H-indole-1-acetic acid]
